Reference: US8338565B2, “Macrocyclic compounds for inhibition of tumor necrosis factor alpha” (Ensemble Therapeutics Corporation, priority 2008, dated 2012)
pIC50: −log10 of the molar value. Read-outs that look alike come from different tables or passages of the source. Numbered stars: 1 amine (or outer) side, 2 acyl side, 3 side chain; on linkers, the order of the positions; unused ones are H or OH. Bridge positions count the residues as written; N and C are the ends. Square brackets hold non-standard residues; d marks the D form. Peptide text beside a SMILES is read from it. * marks the point of attachment. Tartaroyl(2R,3R-(OAc)2) = CC(=O)O[C@@H](C(=O)[*:1])[C@@H](OC(C)=O)C(=O)[*:2]; Phe(4-CF3) = N[C@@H](Cc1ccc(C(F)(F)F)cc1)C(=O)O; Phe(4-COOH) = N[C@@H](Cc1ccc(C(=O)O)cc1)C(=O)O; dPhe(2-CF3) = N[C@H](Cc1ccccc1C(F)(F)F)C(=O)O; Bip = N[C@@H](Cc1ccc(-c2ccccc2)cc1)C(=O)O; dBip = N[C@H](Cc1ccc(-c2ccccc2)cc1)C(=O)O; dPhe(4-NH2) = Nc1ccc(C[C@@H](N)C(=O)O)cc1; Phe(4-Br) = N[C@@H](Cc1ccc(Br)cc1)C(=O)O; Phe(4-NH2) = Nc1ccc(C[C@H](N)C(=O)O)cc1; d(hPhe) = N[C@H](CCc1ccccc1)C(=O)O; hPhe = N[C@@H](CCc1ccccc1)C(=O)O; d2Thi = N[C@H](Cc1cccs1)C(=O)O; Suc = O=C(CCC(=O)[*:2])[*:1]; OtBu = CC(C)(C)O*; βAla = NCCC(=O)O

Molecular target: T1, TNFα / TNFα receptor (TNFα R1/Fc) (Homo sapiens, UniProt P01375)
T1 construct: purchased R&D Systems
T1 sequence (P01375 77-233 limits assumed, species assumed): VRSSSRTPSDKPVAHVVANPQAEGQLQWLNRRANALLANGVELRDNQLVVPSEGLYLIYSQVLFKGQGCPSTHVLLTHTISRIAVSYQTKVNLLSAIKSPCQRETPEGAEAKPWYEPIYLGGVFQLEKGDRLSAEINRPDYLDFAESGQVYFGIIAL
Experiment: Inhibition of binding of TNFα to the TNFα receptor (plate ELISA competition)
Details: Table 2
Outline: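 Compound dilutions were preincubated 30 min at RT with 8.33 nM TNFα R1/Fc in PBST with 2% DMSO, then added to wells coated with 15 nM TNFα for 30 min. Bound receptor was detected with HRP anti-human Fc and TMB, read as A450.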

[1] = read-out: Activity (IC50, inhibition of TNFα binding to TNFα R1/Fc)

N=C(N)NCCC[C@H]1NC(=O)[C@H](Cc2ccc(-c3ccccc3)cc2)NC(=O)[C@@H](Cc2cccs2)NC(=O)CCC(=O)Nc2ccc(cc2)C[C@@H](C(=O)O)NC1=O [Compound 73] ([d2Thi][Bip][dR][Phe(4-NH2)]-OH; linker N-4 via Suc)
pIC50 [1]: < 4.00

O=C(O)[C@@H]1Cc2ccc(cc2)NC(=O)[C@H](O)[C@@H](O)C(=O)N[C@H](CCc2ccccc2)C(=O)N[C@@H](Cc2ccc(-c3ccccc3)cc2)C(=O)N[C@H](Cc2ccccc2)C(=O)N1 [Compound 246]
pIC50 [1]: 4.00 to 4.52

O=C1COc2ccc(cc2)C[C@@H](C(=O)O)NC(=O)[C@@H](CCc2ccccc2)NC(=O)[C@H](Cc2ccc(-c3ccccc3)cc2)NC(=O)[C@@H](Cc2ccc(-c3ccncc3)cc2)N1 [Compound 518]
pIC50 [1]: > 5.00

O=C(O)CC[C@@H]1NC(=O)[C@H](Cc2ccc(-c3ccccc3)cc2)NC(=O)[C@H](Cc2cccs2)NC(=O)COc2ccc(cc2)C[C@@H](C(=O)O)NC1=O [Compound 258]
pIC50 [1]: < 4.00

O=C1COc2ccc(cc2)C[C@@H](C(=O)N[C@H](CCc2ccccc2)C(=O)O)NC(=O)[C@H](CCc2ccccc2)NC(=O)[C@@H](Cc2ccc(-c3ccccc3)cc2)NC(=O)[C@H](Cc2c[nH]c3ccccc23)N1 [Compound 743]
pIC50 (Activity (IC50, inhibition of TNFα binding to TNFα R1/Fc)): > 5.00

O=C1CCC(=O)N[C@H](Cc2cccs2)C(=O)N[C@@H](Cc2ccc(-c3ccccc3)cc2)C(=O)N[C@@H](Cc2ccc(O)cc2)C(=O)N[C@H](C(=O)O)Cc2ccc(cc2)N1 [Compound 58] ([d2Thi][Bip]Y[Phe(4-NH2)]-OH; linker N-4 via Suc)
pIC50 [1]: < 4.00

O=C1CCNC(=O)c2ccc(cc2)C[C@@H](C(=O)O)NC(=O)[C@@H](Cc2ccccc2)NC(=O)[C@H](Cc2ccc(-c3ccccc3)cc2)NC(=O)[C@H](CCc2ccccc2)N1 [Compound 467] ([βAla][hPhe][Bip][dF][Phe(4-COOH)]-OH; lactam N-5)
pIC50 [1]: < 4.00

O=C1CCC(=O)N[C@H](CCc2ccccc2)C(=O)N[C@@H](Cc2ccc(-c3ccccc3)cc2)C(=O)N[C@H](Cc2ccccc2)C(=O)N[C@H](C(=O)N[C@@H](Cc2ccc(O)cc2)C(=O)O)Cc2ccc(cc2)N1 [Compound 471] ([d(hPhe)][Bip][dF][Phe(4-NH2)]Y-OH; linker N-4 via Suc)
pIC50 [1]: > 5.00

N#Cc1cccc(C[C@H]2CC(=O)N[C@H](C(=O)O)Cc3ccc(cc3)OCC(=O)N[C@@H](Cc3cccs3)C(=O)N[C@H](Cc3ccc(-c4ccccc4)cc3)C(=O)N2)c1 [Compound 641]
pIC50 [1]: > 5.00

O=C(O)[C@@H]1Cc2ccc(cc2)NC(=O)[C@H](O)[C@@H](O)C(=O)N[C@H](Cc2cccs2)C(=O)N[C@@H](Cc2ccc(Br)cc2)C(=O)N[C@H](Cc2ccccc2)C(=O)N1 [Compound 293]
pIC50 [1]: < 4.00

N#Cc1ccc(C[C@H]2NC(=O)[C@H](O)[C@@H](O)C(=O)Nc3ccc(cc3)C[C@@H](C(=O)O)NC(=O)[C@@H](Cc3ccccc3)NC(=O)[C@H](Cc3ccc(-c4ccccc4)cc3)NC2=O)cc1 [Compound 260]
pIC50 [1]: 4.00 to 4.52

O=C1COc2ccc(cc2)C[C@@H](C(=O)O)NC(=O)[C@H](Cc2ccc(F)cc2)NC(=O)[C@@H](Cc2ccc(-c3ccccc3)cc2)NC(=O)[C@H](Cc2cccs2)N1 [Compound 627]
pIC50 [1]: < 4.00

O=C1CCC(=O)N[C@H](CCc2ccccc2)C(=O)N[C@@H](Cc2ccc(-c3ccccc3)cc2)C(=O)N[C@H](Cc2ccccc2)C(=O)N[C@@H](C(=O)O)Cc2ccc(cc2)N1 [Compound 172] ([d(hPhe)][Bip][dF][dPhe(4-NH2)]-OH; linker N-4 via Suc)
pIC50 [1]: > 5.00

COc1ccc(C[C@H]2NC(=O)[C@H](Cc3ccc(-c4ccccc4)cc3)NC(=O)[C@@H](Cc3cccs3)NC(=O)COc3ccc(cc3)C[C@@H](C(=O)O)NC2=O)cc1 [Compound 535]
pIC50 [1]: < 4.00

O=C1COc2ccc(cc2)C[C@@H](C(=O)O)NC(=O)[C@@H](Cc2cccs2)NC(=O)[C@H](Cc2ccc(-c3ccccc3)cc2)NC(=O)[C@@H](Cc2cccs2)N1 [Compound 538]
pIC50 [1]: < 4.00

O=C(O)CCCNC(=O)[C@H]1Cc2ccc(cc2)OCC(=O)N[C@@H](Cc2c[nH]c3ccccc23)C(=O)N[C@H](Cc2ccc(-c3ccccc3)cc2)C(=O)N[C@@H](Cc2ccccc2F)C(=O)N1 [compound 713]
pIC50 [1]: > 5.00

O=C1CCNC(=O)c2ccc(cc2)C[C@@H](C(=O)O)NC(=O)[C@@H](Cc2ccccc2)NC(=O)[C@@H](Cc2ccc(-c3ccccc3)cc2)NC(=O)[C@H](CCc2ccccc2)N1 [Compound 468] ([βAla][hPhe][dBip][dF][Phe(4-COOH)]-OH; lactam N-5)
pIC50 [1]: < 4.00

CC(C)(C)OC(=O)C[C@@H]1NC(=O)[C@H](Cc2ccc(-c3ccccc3)cc2)NC(=O)[C@@H](Cc2cccs2)NC(=O)CCC(=O)Nc2ccc(cc2)C[C@@H](C(=O)O)NC1=O [Compound 62] ([d2Thi][Bip]D(OtBu)[Phe(4-NH2)]-OH; linker N-4 via Suc)
pIC50 [1]: < 4.00

O=C1CCNC(=O)c2ccc(cc2)C[C@@H](C(=O)O)NC(=O)[C@@H](Cc2ccccc2)NC(=O)[C@@H](Cc2ccc(-c3ccccc3)cc2)NC(=O)[C@@H](CCc2ccccc2)N1 [Compound 469] ([βAla][d(hPhe)][dBip][dF][Phe(4-COOH)]-OH; lactam N-5)
pIC50 [1]: < 4.00

O=C1COc2ccc(cc2)C[C@@H](C(=O)N[C@H](CCc2ccccc2)C(=O)O)NC(=O)[C@H](CCc2ccccc2)NC(=O)[C@@H](Cc2ccc(-c3ccccc3)cc2)NC(=O)[C@H](Cc2ccc(-c3ccncc3)cc2)N1 [Compound 624]
pIC50 [1]: > 5.00

O=C(O)[C@@H]1Cc2ccc(cc2)NC(=O)[C@H](O)[C@@H](O)C(=O)N[C@H](Cc2ccccc2Cl)C(=O)N[C@@H](Cc2ccc(-c3ccccc3)cc2)C(=O)N[C@H](Cc2ccccc2)C(=O)N1 [Compound 315]
pIC50 [1]: 4.52 to 5.00

CN(C)C(=O)[C@@H]1Cc2ccc(cc2)NC(=O)CCC(=O)N[C@H](CCc2ccccc2)C(=O)N[C@@H](Cc2ccc(-c3ccccc3)cc2)C(=O)N[C@H](Cc2ccccc2)C(=O)N1 [Compound 370] ([d(hPhe)][Bip][dF][Phe(4-NH2)]-NMe2; linker N-4 via Suc)
pIC50 [1]: < 4.00

O=C1COc2ccc(cc2)C[C@@H](C(=O)O)NC(=O)[C@@H](CCc2ccccc2)NC(=O)[C@H](Cc2ccc(-c3ccccc3)cc2)NC(=O)[C@@H](Cc2cccs2)N1 [Compound 145]
pIC50 [1]: 4.52 to 5.00

O=C1COc2ccc(cc2)C[C@@H](C(=O)NC2(C(=O)O)CC2)NC(=O)[C@H](CCc2ccccc2)NC(=O)[C@@H](Cc2ccc(-c3ccccc3)cc2)NC(=O)[C@H](Cc2cccs2)N1 [Compound 478]
pIC50 [1]: > 5.00

O=C(O)[C@@H]1Cc2ccc(cc2)NC(=O)[C@H](O)[C@@H](O)C(=O)N[C@H](Cc2cccs2)C(=O)N[C@@H](Cc2ccc(-c3ccccc3)cc2)C(=O)N[C@H](Cc2ccco2)C(=O)N1 [Compound 284]
pIC50 [1]: 4.52 to 5.00

O=C(O)[C@@H]1Cc2ccc(cc2)NC(=O)[C@H](O)[C@@H](O)C(=O)N[C@H](c2ccccc2)C(=O)N[C@@H](Cc2ccc(-c3ccccc3)cc2)C(=O)N[C@H](Cc2ccccc2)C(=O)N1 [Compound 312]
pIC50 [1]: < 4.00

O=C(O)[C@@H]1Cc2ccc(cc2)NC(=O)[C@H](O)[C@@H](O)C(=O)N[C@H](Cc2cccnc2)C(=O)N[C@@H](Cc2ccc(-c3ccccc3)cc2)C(=O)N[C@H](Cc2ccccc2)C(=O)N1 [Compound 311]
pIC50 [1]: 4.00 to 4.52

CC(=O)O[C@H]1C(=O)Nc2ccc(cc2)C[C@H](C(=O)O)NC(=O)[C@@H](Cc2ccccc2)NC(=O)[C@H](Cc2ccc(Br)cc2)NC(=O)[C@@H](Cc2ccccc2)NC(=O)[C@@H]1OC(C)=O [Compound 231] ([dF][Phe(4-Br)][dF][dPhe(4-NH2)]-OH; linker N-4 via Tartaroyl(2R,3R-(OAc)2))
pIC50 [1]: < 4.00

O=C1CCC(=O)N[C@H](Cc2ccccc2C(F)(F)F)C(=O)N[C@@H](Cc2ccc(C(F)(F)F)cc2)C(=O)N[C@H](Cc2ccccc2)C(=O)N[C@H](C(=O)O)Cc2ccc(cc2)N1 [Compound 163] ([dPhe(2-CF3)][Phe(4-CF3)][dF][Phe(4-NH2)]-OH; linker N-4 via Suc)
pIC50 [1]: 4.00 to 4.52
